These results are taken from US20100274022A1, “G PROTEIN-COUPLED RECEPTOR INHIBITOR AND PHARMACEUTICAL PRODUCT” (PHARMAFRONTIER CO., LTD., priority 2007, published 2010).

The experiment concerns the target T1, humanGPR120 (Homo sapiens, UniProt Q5NUL3).
T1 construct: expressed in transfected cells
T1 sequence (Q5NUL3 1-377 isoform Q5NUL3-1 R67C/Q274H/I297T): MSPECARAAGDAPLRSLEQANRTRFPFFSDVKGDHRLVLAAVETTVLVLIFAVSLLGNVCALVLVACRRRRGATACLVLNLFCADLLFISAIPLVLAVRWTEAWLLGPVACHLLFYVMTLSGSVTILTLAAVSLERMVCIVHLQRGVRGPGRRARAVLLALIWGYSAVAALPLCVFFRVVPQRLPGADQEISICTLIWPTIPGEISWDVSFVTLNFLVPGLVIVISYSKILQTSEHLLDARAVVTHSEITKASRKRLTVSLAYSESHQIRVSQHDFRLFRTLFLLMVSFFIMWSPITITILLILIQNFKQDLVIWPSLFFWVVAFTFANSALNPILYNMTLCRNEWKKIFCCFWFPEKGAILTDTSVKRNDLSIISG
The experiment is described as follows: Inhibitory effect on activation (antagonistic activity): α-LA-stimulated increase in intracellular Ca2+ concentration measured by FLIPR in cells comprising GPR120. Format: cell-based.

Turning to “(E)-3-{3-[2-(2-nonylpyridinylamino)ethoxy]phenyl}acrylic acid [ATG-19]”, the “antagonistic activity for GPR120 (result in words)” value is “significant antagonistic activity”.
